Reference: ChEMBL document CHEMBL1201862, “PubChem BioAssay data set” (2004)
Activity calls are given as the source filed them.

Key:
[1] = molecular target: Glycogen synthase kinase-3 alpha (Homo sapiens, UniProt P49840); test: GSK3A enzyme blockers, homolog specificity check – biochemical, microfluidics, dry powder samples, set 2, selectivity assay for GSK3beta inhibitor project, dose response (AID 623978); format: functional
[2] = molecular target: Glycogen synthase kinase-3 beta (Homo sapiens, UniProt P49841); test: inhibition of human GSK3B activity – biochemical, microfluidics, dry powder samples, set 2, dose response (AID 623989); format: functional
[3] = general mammalian cell viability loss – inhibitor set, cherry-pick, set 2, cytotoxicity control for miR-122 modulator project, dose response (AID 720697); format: functional, cell-based
[4] = THP-1 cell cytotoxicity, cytotoxicity control, set 5 (AID 588443); format: functional
[5] = Vero cell viability loss – purified and synthesized compounds, set 6, cytotoxicity control for M. tuberculosis inhibitor project, dose response (AID 588445); format: functional; settings: Mycobacterium tuberculosis
[6] = A High Throughput Confirmatory Assay used to Identify Novel Compounds that Inhibit Mycobacterium Tuberculosis in the absence of Glycerol using Purified and Synthesized Compounds (3).; format: functional
[7] = HepG2 cell cytotoxicity, cytotoxicity control, set 5 (AID 588441); format: functional; settings: Mycobacterium tuberculosis
[8] = molecular target: Cell division cycle 7-related protein kinase (Homo sapiens, UniProt O00311); format: functional;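 also: value obtained from a kinome-wide kinase panel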
Sequence of Cell division cycle 7-related protein kinase (O00311 whole entry): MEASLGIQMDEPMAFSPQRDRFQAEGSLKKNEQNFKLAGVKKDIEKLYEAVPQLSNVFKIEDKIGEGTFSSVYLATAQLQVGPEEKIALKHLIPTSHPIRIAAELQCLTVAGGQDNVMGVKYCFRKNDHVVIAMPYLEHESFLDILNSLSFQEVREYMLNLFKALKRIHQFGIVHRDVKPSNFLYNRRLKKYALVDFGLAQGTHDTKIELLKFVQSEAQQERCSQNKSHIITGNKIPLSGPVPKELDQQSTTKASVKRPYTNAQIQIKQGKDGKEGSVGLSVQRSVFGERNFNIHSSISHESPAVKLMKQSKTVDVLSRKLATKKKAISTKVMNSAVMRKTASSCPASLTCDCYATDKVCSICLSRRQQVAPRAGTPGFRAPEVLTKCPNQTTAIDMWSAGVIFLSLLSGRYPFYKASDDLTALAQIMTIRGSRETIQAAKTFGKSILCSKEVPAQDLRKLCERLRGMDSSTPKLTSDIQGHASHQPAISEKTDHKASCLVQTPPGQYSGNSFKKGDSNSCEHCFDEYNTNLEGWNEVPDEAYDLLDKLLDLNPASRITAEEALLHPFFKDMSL

[9] = molecular target: Wee1-like protein kinase (Homo sapiens, UniProt P30291); test: Navigating the Kinome. Panel member name: WEE1; format: functional
[10] = molecular target: Cyclin-dependent kinase 19 (Homo sapiens, UniProt Q9BWU1); test: Navigating the Kinome. Panel member name: CDC2L6; format: functional
[11] = molecular target: Serine/threonine-protein kinase pim-1 (Homo sapiens, UniProt P11309); format: functional
Sequence of Serine/threonine-protein kinase pim-1 (P11309 whole entry): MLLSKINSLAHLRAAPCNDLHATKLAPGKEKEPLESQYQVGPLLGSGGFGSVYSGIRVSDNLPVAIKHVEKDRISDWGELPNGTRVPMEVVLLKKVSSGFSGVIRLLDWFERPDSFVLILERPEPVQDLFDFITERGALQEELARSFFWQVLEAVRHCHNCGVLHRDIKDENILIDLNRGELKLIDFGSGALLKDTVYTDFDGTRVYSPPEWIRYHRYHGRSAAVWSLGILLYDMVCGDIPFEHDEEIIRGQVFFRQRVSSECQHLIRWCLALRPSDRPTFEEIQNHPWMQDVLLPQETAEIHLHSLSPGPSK

[12] = molecular target: MAP kinase-activated protein kinase 5 (Homo sapiens, UniProt Q8IW41); format: functional;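 also: measured as one member of a kinome panel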
[13] = molecular target: Tyrosine-protein kinase receptor UFO (Homo sapiens, UniProt P30530); format: functional
[14] = molecular target: Protein-tyrosine kinase 2-beta (Homo sapiens, UniProt Q14289); format: functional
[15] = molecular target: SRSF protein kinase 1 (Homo sapiens, UniProt Q96SB4); format: functional;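 also: measured as one member of a kinome-wide kinase profiling panel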
[16] = molecular target: Dual specificity protein kinase CLK4 (Homo sapiens, UniProt Q9HAZ1); format: functional
Sequence of Dual specificity protein kinase CLK4 (Q9HAZ1 whole entry): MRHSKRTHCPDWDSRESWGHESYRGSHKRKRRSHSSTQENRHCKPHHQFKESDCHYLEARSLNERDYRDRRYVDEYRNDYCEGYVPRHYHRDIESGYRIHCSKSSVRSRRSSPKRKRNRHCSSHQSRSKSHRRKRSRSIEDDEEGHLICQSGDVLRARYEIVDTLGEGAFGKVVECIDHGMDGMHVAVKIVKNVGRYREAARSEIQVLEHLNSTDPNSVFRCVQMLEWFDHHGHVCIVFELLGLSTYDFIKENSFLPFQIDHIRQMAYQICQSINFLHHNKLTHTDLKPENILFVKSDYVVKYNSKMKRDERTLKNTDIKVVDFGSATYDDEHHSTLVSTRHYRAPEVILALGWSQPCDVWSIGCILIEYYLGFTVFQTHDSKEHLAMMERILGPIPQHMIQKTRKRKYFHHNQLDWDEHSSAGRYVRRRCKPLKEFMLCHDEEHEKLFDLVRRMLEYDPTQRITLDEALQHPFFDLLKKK

[17] = molecular target: Vascular endothelial growth factor receptor 2 (Homo sapiens, UniProt P35968); format: functional
Sequence of Vascular endothelial growth factor receptor 2 (P35968 whole entry): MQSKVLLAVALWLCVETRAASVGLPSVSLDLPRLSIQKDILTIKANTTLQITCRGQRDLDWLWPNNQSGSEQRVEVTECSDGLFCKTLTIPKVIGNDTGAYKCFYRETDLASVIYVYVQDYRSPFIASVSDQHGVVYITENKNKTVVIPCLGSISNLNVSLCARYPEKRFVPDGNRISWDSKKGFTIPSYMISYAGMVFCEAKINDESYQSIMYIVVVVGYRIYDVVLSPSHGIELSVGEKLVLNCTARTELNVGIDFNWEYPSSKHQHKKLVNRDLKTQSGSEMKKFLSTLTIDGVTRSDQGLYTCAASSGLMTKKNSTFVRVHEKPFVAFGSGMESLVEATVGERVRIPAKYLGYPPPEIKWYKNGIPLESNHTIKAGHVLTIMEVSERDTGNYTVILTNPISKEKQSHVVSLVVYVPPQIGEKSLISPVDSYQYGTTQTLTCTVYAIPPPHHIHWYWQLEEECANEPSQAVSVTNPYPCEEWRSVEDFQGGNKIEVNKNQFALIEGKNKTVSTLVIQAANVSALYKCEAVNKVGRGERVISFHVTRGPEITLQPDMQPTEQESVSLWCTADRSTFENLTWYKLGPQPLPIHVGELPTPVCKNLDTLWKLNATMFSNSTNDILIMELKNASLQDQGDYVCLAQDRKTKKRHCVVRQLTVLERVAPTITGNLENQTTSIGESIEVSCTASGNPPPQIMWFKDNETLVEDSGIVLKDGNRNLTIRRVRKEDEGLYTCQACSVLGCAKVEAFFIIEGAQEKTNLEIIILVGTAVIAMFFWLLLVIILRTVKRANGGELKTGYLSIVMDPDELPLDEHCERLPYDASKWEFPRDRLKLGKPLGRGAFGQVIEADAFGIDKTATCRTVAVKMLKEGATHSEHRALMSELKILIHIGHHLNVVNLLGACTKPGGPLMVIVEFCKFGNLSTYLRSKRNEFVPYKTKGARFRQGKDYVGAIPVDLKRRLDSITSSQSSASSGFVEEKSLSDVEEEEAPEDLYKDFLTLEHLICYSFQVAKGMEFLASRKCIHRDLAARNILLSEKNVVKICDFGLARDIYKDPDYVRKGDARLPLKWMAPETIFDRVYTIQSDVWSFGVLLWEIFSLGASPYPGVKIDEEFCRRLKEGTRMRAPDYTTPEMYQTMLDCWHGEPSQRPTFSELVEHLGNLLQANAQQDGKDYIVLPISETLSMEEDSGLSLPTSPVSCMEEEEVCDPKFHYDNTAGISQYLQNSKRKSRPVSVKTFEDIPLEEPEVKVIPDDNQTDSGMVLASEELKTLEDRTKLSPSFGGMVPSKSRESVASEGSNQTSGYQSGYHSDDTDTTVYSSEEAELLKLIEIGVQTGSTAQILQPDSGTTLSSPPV

[18] = molecular target: Aurora kinase B (Homo sapiens, UniProt Q96GD4); format: functional
Sequence of Aurora kinase B (Q96GD4 whole entry): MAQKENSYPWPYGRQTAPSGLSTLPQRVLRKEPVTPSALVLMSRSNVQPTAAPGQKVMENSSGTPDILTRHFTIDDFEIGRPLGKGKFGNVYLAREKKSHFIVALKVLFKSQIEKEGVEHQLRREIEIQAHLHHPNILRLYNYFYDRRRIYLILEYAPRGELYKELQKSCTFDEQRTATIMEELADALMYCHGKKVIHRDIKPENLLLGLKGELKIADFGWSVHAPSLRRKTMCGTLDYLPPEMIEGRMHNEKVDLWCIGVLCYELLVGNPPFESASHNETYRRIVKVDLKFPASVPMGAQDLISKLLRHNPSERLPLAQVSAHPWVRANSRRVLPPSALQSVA

[19] = molecular target: Aurora kinase A (Homo sapiens, UniProt O14965); format: functional;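 also: value from the Navigating the Kinome kinase panel profiling, panel entry STK6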
[20] = molecular target: DNA dC->dU-editing enzyme APOBEC-3G (Homo sapiens, UniProt Q9HC16); test: SAR analysis of small molecule inhibitors of APOBEC3G DNA Deaminase via a fluorescence-based single-stranded DNA deaminase assay - Set 2.; format: functional; settings: read-out: IC50_Mean
[21] = molecular target: DNA dC->dU-editing enzyme APOBEC-3A (Homo sapiens, UniProt P31941); test: SAR analysis of small molecule inhibitors of APOBEC3A DNA Deaminase via a fluorescence-based single-stranded DNA deaminase assay - Set 2.; format: functional; settings: read-out: IC50_Mean
Sequence of DNA dC->dU-editing enzyme APOBEC-3A (P31941 whole entry): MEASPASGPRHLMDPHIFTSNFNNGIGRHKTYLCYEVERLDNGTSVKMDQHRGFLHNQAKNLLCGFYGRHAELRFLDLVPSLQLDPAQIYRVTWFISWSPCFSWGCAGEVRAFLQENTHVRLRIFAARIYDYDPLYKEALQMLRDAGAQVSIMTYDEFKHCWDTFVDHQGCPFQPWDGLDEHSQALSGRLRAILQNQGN

[22] = molecular target: Sphingosine 1-phosphate receptor 2 (Homo sapiens, UniProt O95136); test: Late-stage fluorescence-based dose-response cell-based counterscreen assay to identify agonists of the Sphingosine 1-Phosphate Receptor 3 (S1P3): Sphingosine 1-Phosphate Receptor 2 (S1P2) agonist assay.; format: functional
[23] = molecular target: T1, Sphingosine 1-phosphate receptor 4 (Homo sapiens, UniProt O95977); test: Late-stage fluorescence-based dose-response cell-based counterscreen assay to identify agonists of the Sphingosine 1-Phosphate Receptor 3 (S1P3): Sphingosine 1-Phosphate Receptor 4 (S1P4) agonist assay.; format: functional
T1 sequence (O95977 whole entry): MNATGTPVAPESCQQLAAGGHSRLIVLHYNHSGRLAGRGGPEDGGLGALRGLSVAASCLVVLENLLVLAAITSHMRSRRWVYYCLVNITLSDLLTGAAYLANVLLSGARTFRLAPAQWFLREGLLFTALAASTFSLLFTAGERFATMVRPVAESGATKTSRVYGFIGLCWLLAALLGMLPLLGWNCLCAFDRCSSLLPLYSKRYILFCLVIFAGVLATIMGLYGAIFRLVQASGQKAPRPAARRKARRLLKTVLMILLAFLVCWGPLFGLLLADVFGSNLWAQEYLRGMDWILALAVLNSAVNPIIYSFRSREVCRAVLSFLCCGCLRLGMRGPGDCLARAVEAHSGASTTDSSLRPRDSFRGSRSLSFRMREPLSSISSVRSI

[24] = molecular target: Serine/threonine-protein kinase pim-3 (Homo sapiens, UniProt Q86V86); format: functional;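 also: value obtained as one member of a broad kinase panel profiling effort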
[25] = molecular target: Melanin-concentrating hormone receptor 1 (Homo sapiens, UniProt Q99705); test: Late-stage fluorescence-based counterscreen for antagonists of the G-protein coupled receptor 7 (GPR7): cell-based dose response assay to identify antagonists of the melanin-concentrating hormone receptor 1 (MCHR1) Set 6.; format: functional
[26] = molecular target: T2, Neuropeptides B/W receptor type 1 (Homo sapiens, UniProt P48145); test: human NPBW1 receptor blockade, IC50 – cell-based, fluorescence, dose response, set 6, late-stage follow-up (AID 588583); format: functional
T2 sequence (P48145 whole entry): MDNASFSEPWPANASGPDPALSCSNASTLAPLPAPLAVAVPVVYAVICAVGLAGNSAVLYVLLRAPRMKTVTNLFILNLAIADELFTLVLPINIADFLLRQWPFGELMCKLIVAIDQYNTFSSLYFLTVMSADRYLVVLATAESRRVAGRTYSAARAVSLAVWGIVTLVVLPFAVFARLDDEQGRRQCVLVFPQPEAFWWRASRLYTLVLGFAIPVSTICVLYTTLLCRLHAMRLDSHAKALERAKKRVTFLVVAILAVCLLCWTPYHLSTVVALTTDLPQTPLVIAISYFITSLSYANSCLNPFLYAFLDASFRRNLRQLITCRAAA

[27] = molecular target: Dual specificity tyrosine-phosphorylation-regulated kinase 1B (Homo sapiens, UniProt Q9Y463); test: Navigating the Kinome. Panel member name: DYRK1B; format: functional
[28] = molecular target: Serine/threonine-protein kinase TAO1 (Homo sapiens, UniProt Q7L7X3); format: functional
[29] = molecular target: Dual specificity protein kinase CLK2 (Homo sapiens, UniProt P49760); format: functional
[30] = molecular target: Leukocyte tyrosine kinase receptor (Homo sapiens, UniProt P29376); test: Navigating the Kinome. Panel member name: LTK; format: functional
[31] = molecular target: 5'-AMP-activated protein kinase catalytic subunit alpha-1 (Homo sapiens, UniProt Q13131); format: functional
[32] = molecular target: Vascular endothelial growth factor receptor 1 (Homo sapiens, UniProt P17948); format: functional;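 also: measured within a kinome-wide profiling panel, FLT1 as the panel member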
[33] = molecular target: Casein kinase I isoform alpha (Homo sapiens, UniProt P48729); format: functional
[34] = molecular target: Cyclin-dependent kinase 8 (Homo sapiens, UniProt P49336); test: Navigating the Kinome. Panel member name: CDK8; format: functional
[35] = molecular target: Leucine-rich repeat serine/threonine-protein kinase 2 (Homo sapiens, UniProt Q5S007); format: functional;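 also: value from a broad kinome-wide panel profiling study in which LRRK2 was one of the kinases tested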
[36] = molecular target: cAMP-dependent protein kinase catalytic subunit PRKX (Homo sapiens, UniProt P51817); format: functional
[37] = molecular target: Proto-oncogene tyrosine-protein kinase receptor Ret (Homo sapiens, UniProt P07949); format: functional;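 also: measured within a kinome-wide profiling panel, RET as the panel member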
[38] = molecular target: ALK tyrosine kinase receptor (Homo sapiens, UniProt Q9UM73); format: functional;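 also: ALK tested as one member of a kinase panel screen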
[39] = molecular target: Fibroblast growth factor receptor 1 (Homo sapiens, UniProt P11362); format: functional
[40] = molecular target: Activated CDC42 kinase 1 (Homo sapiens, UniProt Q07912); test: Navigating the Kinome. Panel member name: ACK1; format: functional
[41] = molecular target: Activin receptor type-1 (Homo sapiens, UniProt Q04771); test: Navigating the Kinome. Panel member name: ACVR1; format: functional
[42] = molecular target: Rho-associated protein kinase 1 (Homo sapiens, UniProt Q13464); format: functional;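 also: measured within a broad kinome-wide panel profiling many kinases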
Sequence of Rho-associated protein kinase 1 (Q13464 whole entry): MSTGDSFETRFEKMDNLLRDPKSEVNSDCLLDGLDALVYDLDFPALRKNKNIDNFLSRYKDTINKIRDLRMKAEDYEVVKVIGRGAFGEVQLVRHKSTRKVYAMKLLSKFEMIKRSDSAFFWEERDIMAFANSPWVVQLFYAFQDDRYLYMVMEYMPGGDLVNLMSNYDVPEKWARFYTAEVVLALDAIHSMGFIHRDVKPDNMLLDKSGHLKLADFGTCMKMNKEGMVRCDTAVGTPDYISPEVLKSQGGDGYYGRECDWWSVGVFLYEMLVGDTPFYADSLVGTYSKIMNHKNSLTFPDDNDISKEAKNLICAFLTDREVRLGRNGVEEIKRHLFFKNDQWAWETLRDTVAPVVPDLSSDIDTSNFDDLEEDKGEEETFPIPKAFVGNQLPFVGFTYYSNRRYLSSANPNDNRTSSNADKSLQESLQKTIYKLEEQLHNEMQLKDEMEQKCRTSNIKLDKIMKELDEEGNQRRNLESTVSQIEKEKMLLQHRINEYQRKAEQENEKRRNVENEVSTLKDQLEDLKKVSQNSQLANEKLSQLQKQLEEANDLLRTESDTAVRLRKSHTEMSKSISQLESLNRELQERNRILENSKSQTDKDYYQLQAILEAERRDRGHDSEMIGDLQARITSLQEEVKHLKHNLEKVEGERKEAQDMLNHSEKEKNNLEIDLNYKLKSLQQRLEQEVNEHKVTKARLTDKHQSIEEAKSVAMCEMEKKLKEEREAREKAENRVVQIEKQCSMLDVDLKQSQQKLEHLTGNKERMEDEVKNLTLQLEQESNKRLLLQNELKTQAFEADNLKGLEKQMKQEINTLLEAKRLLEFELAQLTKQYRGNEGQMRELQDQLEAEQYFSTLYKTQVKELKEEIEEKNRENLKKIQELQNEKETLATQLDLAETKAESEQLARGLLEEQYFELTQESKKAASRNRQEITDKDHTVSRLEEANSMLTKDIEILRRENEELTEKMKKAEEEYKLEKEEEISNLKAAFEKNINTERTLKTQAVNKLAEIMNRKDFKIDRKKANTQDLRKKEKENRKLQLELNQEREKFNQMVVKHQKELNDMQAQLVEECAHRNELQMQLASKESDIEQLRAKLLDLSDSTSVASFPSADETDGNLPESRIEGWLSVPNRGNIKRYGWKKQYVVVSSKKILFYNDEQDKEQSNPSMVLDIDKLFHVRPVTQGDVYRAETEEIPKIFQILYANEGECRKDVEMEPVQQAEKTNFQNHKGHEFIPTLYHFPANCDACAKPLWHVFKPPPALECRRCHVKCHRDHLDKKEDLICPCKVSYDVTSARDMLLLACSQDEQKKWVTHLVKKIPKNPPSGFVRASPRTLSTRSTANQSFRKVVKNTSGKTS

[43] = molecular target: MAP/microtubule affinity-regulating kinase 3 (Homo sapiens, UniProt P27448); format: functional;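 also: MARK3 affinity measured as one member of a kinome panel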
[44] = molecular target: Ribosomal protein S6 kinase alpha-3 (Homo sapiens, UniProt P51812); format: functional;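 also: measured within a kinome-wide profiling panel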
[45] = molecular target: Dual specificity mitogen-activated protein kinase kinase 1 (Homo sapiens, UniProt Q02750); test: Navigating the Kinome. Panel member name: MAP2K1; format: functional
[46] = molecular target: Mitogen-activated protein kinase 10 (Homo sapiens, UniProt P53779); test: Navigating the Kinome. Panel member name: MAPK10; format: functional
[47] = molecular target: Mast/stem cell growth factor receptor Kit (Homo sapiens, UniProt P10721); format: functional;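 also: KIT entry within a kinase panel assay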
[48] = molecular target: Tyrosine-protein kinase receptor TYRO3 (Homo sapiens, UniProt Q06418); format: functional;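 also: TYRO3 value obtained as one member of a kinome-wide profiling panel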
[49] = molecular target: Tyrosine-protein kinase JAK3 (Homo sapiens, UniProt P52333); format: functional
[50] = molecular target: G protein-coupled receptor kinase 5 (Homo sapiens, UniProt P34947); test: Navigating the Kinome. Panel member name: GPRK5; format: functional
[51] = molecular target: Mitogen-activated protein kinase kinase kinase kinase 4 (Homo sapiens, UniProt O95819); format: functional
[52] = molecular target: Inhibitor of nuclear factor kappa-B kinase subunit epsilon (Homo sapiens, UniProt Q14164); test: Navigating the Kinome. Panel member name: IKBKE; format: functional
[53] = molecular target: Tyrosine-protein kinase JAK2 (Homo sapiens, UniProt O60674); format: functional;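 also: JAK2 tested as one member of a kinase panel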
[54] = molecular target: Dual specificity tyrosine-phosphorylation-regulated kinase 1A (Homo sapiens, UniProt Q13627); format: functional;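 also: measured against DYRK1A as one member of a broad kinome profiling panel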
[55] = molecular target: Macrophage-stimulating protein receptor (Homo sapiens, UniProt Q04912); test: Navigating the Kinome. Panel member name: MST1R; format: functional

## Clc1ccc(CSc2nnc(-c3ccncc3)o2)c(Cl)c1
[1]
  AC50: 24 µM (active)
[2]
  AC50: 1.83 µM (active)
[3]
  AC50: 8.31 µM (active)

## Cc1cccc(N2CCN(C(=O)c3ccc(CNc4c(N5CCC(C)CC5)c(=O)c4=O)cc3)CC2)c1C
[4]
  CC50: 8.21 µM (active)
[5]
  CC50: > 30 µM (active)
[6]
  IC50: > 25 µM (active)
[7]
  CC50: > 15 µM (active)

## c1cc(NC2CCCCC2)nc(Nc2ccc3[nH]ncc3c2)n1
[8]
  Ki: 0.2 µM (active)
[9]
  Ki: > 3.16 µM (inactive)

## Oc1cncc2nc(-c3ccncc3)ccc12
[10]
  Ki: > 100 µM (inactive)
[8]
  Ki: 0.501 µM (active)

## O=C1CC(c2ccc(Cl)cc2)Cc2[nH]c3cc(Cl)ccc3c(=O)c21 (stereo unspecified)
[11]
  Ki: 5.01 µM (active)
[12]
  Ki: 1.26 µM (active)
[13]
  Ki: 1.58 µM (active)
[14]
  Ki: 1.58 µM (active)
[15]
  Ki: 6.31 µM (active)
[16]
  Ki: 6.31 µM (active)

## O=C(CCCCCCC(=NO)c1ncco1)Nc1cccc(-c2ccccc2)c1
[17]
  Ki: > 5.01 µM (inactive)
[18]
  Ki: 0.0251 µM (active)
[19]
  Ki: > 2 µM (inactive)

## CCCn1c(=O)c2ccccc2n2c(SC)nnc12
[20]
  IC50: > 99 µM (inactive)
[21]
  IC50: > 99 µM (inactive)

## CC(C)Cc1cc(C(=O)N(C2CCCCC2)C2CCCCC2)no1
[22]
  EC50: > 50 µM (inactive)
[23]
  EC50: > 50 µM (inactive)

## N=C(N)Cc1cccc(-c2nc3ccccc3[nH]2)c1
[24]
  Ki: 3.98 µM (active)
[11]
  Ki: 5.01 µM (active)
[18]
  Ki: 2.51 µM (active)

## N#CC(c1ccc2c(c1)OCO2)c1c(Cl)cnn(Cc2cccc3ccccc23)c1=O (stereo unspecified)
[25]
  IC50: 0.41 µM (active)
[26]
  IC50: 0.41 µM (active)

## O=C(Nc1cccc(C(F)(F)F)n1)Nc1ccnc2ccc(F)cc12
[27]
  Ki: 2 µM (active)
[28]
  Ki: > 2.51 µM (inactive)
[17]
  Ki: > 2.51 µM (inactive)
[29]
  Ki: 3.16 µM (active)
[30]
  Ki: > 3.16 µM (inactive)
[11]
  Ki: > 6.31 µM (inactive)
[31]
  Ki: > 3.16 µM (inactive)
[32]
  Ki: > 3.98 µM (inactive)
[33]
  Ki: > 3.98 µM (inactive)
[34]
  Ki: 0.0794 µM (active)
[35]
  Ki: > 2.51 µM (inactive)
[36]
  Ki: > 3.16 µM (inactive)
[37]
  Ki: > 3.16 µM (inactive)
[38]
  Ki: > 6.31 µM (inactive)
[39]
  Ki: > 3.98 µM (inactive)
[40]
  Ki: > 3.98 µM (inactive)
[41]
  Ki: 1.58 µM (active)
[42]
  Ki: > 3.98 µM (inactive)
[43]
  Ki: > 5.01 µM (inactive)
[44]
  Ki: > 3.98 µM (inactive)
[45]
  Ki: > 3.16 µM (inactive)
[46]
  Ki: > 3.16 µM (inactive)
[47]
  Ki: > 6.31 µM (inactive)
[48]
  Ki: > 3.16 µM (inactive)
[49]
  Ki: > 5.01 µM (inactive)
[50]
  Ki: > 3.98 µM (inactive)
[16]
  Ki: 0.1 µM (active)
[51]
  Ki: > 5.01 µM (inactive)
[52]
  Ki: > 3.16 µM (inactive)
[53]
  Ki: > 2.51 µM (inactive)
[54]
  Ki: > 2 µM (inactive)
[55]
  Ki: > 3.98 µM (inactive)
